We go through three compounds from US20240325274A1, “SUPRAMOLECULAR AMINO ACID OR SALT THEREOF, AND PREPARATION METHOD THEREFOR AND APPLICATION THEREOF” (SUZHOU OULIT BIOPHARM CO., LTD., priority 2021, published 2024).

Data set [1] can be described thus: Qualitative household application test. The following applies: 12% aqueous solution of sodium salt.
Description: For the surface of the electric rice cookers, especially the sticky bottoms, the greasy stains on the surface were wiped several times by using rags or paper towels soaked in the solutions and then wiped by using a clean cloth.
The subject of another data set is C. albicans (ATCC 10231). The following applies: 10 g in 100 mL neutralized with NaOH to pH 6-7. The method, then:
(§1) A 10% aqueous sodium hydroxide solution was added to neutralize the mixture to pH 6-7. The volume of the aqueous solution was brought to 100 mL. Fruits pre-inoculated with common microorganisms such as Staphylococcus aureus, Escherichia coli, Pseudomonas aeruginosa, Candida albicans, and the like were soaked in 5 mL of the stock solution (the solution neutralized by sodium hydroxide) for a certain period of time, and washed with clean water. The microorganism residues on the fruits were determined.

Another data set concerns E. coli (8099). The protocol: as §1
The next data set relates to S. aureus (ATCC 6538). The following applies: 10 g in 100 mL neutralized with NaOH to pH 6-7. The protocol: as §1
The conditions of data set [2]: cloths soaked in 5 mL stock solution for 2 min, washed with water, aired. The protocol:
A 10% aqueous sodium hydroxide solution was added to neutralize the mixture to pH 6-7. The volume of the aqueous solution was brought to 100 mL. Cotton cloths of 10 square centimeters with peculiar smell (smell, engine oil smell, odor, etc.) were soaked in 5 mL of stock solution for 2 min, taken out, washed with water, and dried by airing.

Data set [3] can be described thus: Detergency evaluation: color cosmetics on arms of 5 subjects. Also noted: key: 5 denotes the best; 3 denotes moderate; 1 denotes the worst. The following applies: 1 g of 4% aqueous solution with 0.54% sodium hydroxide; graded by 5 subjects. An excerpt:
(§2) Three sets of color cosmetics (lipstick+eyeliner) were applied to the arms of 5 subjects with similar areas and thicknesses. The cosmetics were washed with the aqueous solutions in Table 6 (1 g of each) and then rinsed with tap water (the detergency was graded by the 5 subjects comprehensively).

The procedure of data set [4]:
Two 100-g aliquots of bok choy pre-sprayed with pesticides methamidophos and acephate were taken. One was directly soaked in 1 L of clean water and detected for the pesticide residues, denoted as “before washing”. […] The procedures are as follows:
A 10% aqueous sodium hydroxide solution was added to neutralize the mixture to pH 6-7. The volume of the aqueous solution was brought to 100 mL. The second 100-g aliquot of bok choy pre-sprayed with pesticides methamidophos and acephate was shredded, soaked in 5 mL of the stock solution for 2 min, washed with 500 mL of clean water, and detected for the pesticide residues.

The nature of data set [5]: pH, appearance and smell of neutralized aqueous solutions. In kind it is physicochemical. The following applies: 4% in water with 0.54% sodium hydroxide (Table 6). The protocol:
as §2
The preparation procedures are as follows: Two 500-g beakers were weighed on an electronic balance, and the weights of the beakers were recorded; a proper amount of deionized water was weighed and added to the beakers according to the formula, and the beakers were heated to 75-80° C. in a water bath. The temperature of the water in the beaker was measured by a thermometer. […] At the start of the stirring, a proper amount of arginine was added to beaker (1) and a proper amount of 10% aqueous sodium hydroxide solution was added to beaker (2). The mixtures were stirred for 1 min. The temperature of the beakers (1) and (2) was reduced to 25° C. by running tap water. The evaporated water in the two beakers in the preparation process was compensated by cooled deionized water to 100% on an electronic balance. The pH of the products in the beaker (1) and (2) was measured, the appearance was observed, and the smell was confirmed.

For the compound “N-lauroyl-L-alanine supramolecule [Example 1]”, the “Detergency on surfaces of cooking benches and kitchen hoods” value in data set [1] is given as “excellent detergency”. The “Inhibition of C. albicans (ATCC 10231), % (after 5 minutes)” value with C. albicans (ATCC 10231) amounted to 100%. The “Inhibition of E. coli (8099), % (after 2 minutes)” value in the data set on E. coli (8099) (after 2 minutes, 10 g in 100 mL neutralized with NaOH to pH 6-7, fruits soaked in 5 mL stock solution) came to 98.5%. For the same compound, the “Inhibition of E. coli (8099), % (after 5 minutes)” value in the data set on E. coli (8099) (after 5 minutes, 10 g in 100 mL neutralized with NaOH to pH 6-7) was 100%. Also, the “Inhibition of S. aureus (ATCC 6538), % (after 2 minutes)” value in the data set on S. aureus (ATCC 6538) (after 2 minutes) is 100%. Moreover, the “Inhibition of S. aureus (ATCC 6538), % (after 5 minutes)” value in the data set on S. aureus (ATCC 6538) (after 5 minutes) came out at 100%. Also, the “Deodorization effect on cotton cloths” value in data set [2] was “the smells on the cotton cloths were completely eliminated”. For the same compound, in data set [3], the Detergency was determined as 5. In data set [4] (2 min of treatment), the “Acephate, Percentage removal, %” value is on record as 86.37% and the “Methamidophos, Percentage removal, %” value is reported as 76.19%. For the same compound, the “Methamidophos residue, After cleaning” value in data set [4] (bok choy soaked in 5 mL stock solution for 2 min, washed with 500 mL clean water, before washing 16.42 mg/kg) worked out at 3.91 mg/kg. Besides, the “Acephate residue, After cleaning” value in data set [4] (bok choy soaked in 5 mL stock solution for 2 min, washed with 500 mL clean water, before washing 37.57 mg/kg) is on record as 5.12 mg/kg.

Take `CCCCCCCCCCCC(=O)N[C@@H](C)C(=O)O` [Comparative Example 1, N-lauroyl-L-alanine]: in data set [5], the Appearance result is reported as “Transparent” and the pH value is 8.07. The Detergency in data set [3] worked out at 3.

Regarding `CCCCCCCCCCCC(=O)N[C@@H](C)C(=O)O` [Comparative Example 2, N-lauroyl-L-alanine], in data set [5], the Appearance entry is given as “Transparent” and the pH value is on record as 6.56. Also, the Detergency in data set [3] is 1.
